Measured values reported in PubChem BioAssay (NCI).
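96-well plates; 48 h exposure; 5 concentrations. Endpoints by linear interpolation between flanking doses. Not reached: highest tested concentration assigned. TGI marks complete inhibition of growth.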

Legend:
Experiment in all cases: DTP human tumour cell line panel, 48 h
SF-539 CNS = system: SF-539 CNS
LOX IMVI melanoma = system: LOX IMVI melanoma
ACHN renal = system: ACHN renal
786-0 renal = system: 786-0 renal
KM12 colon = system: KM12 colon
HT29 colon = system: HT29 colon
BT-549 breast = system: BT-549 breast
MDA-MB-231 breast = system: MDA-MB-231 breast
DU-145 prostate = system: DU-145 prostate
HOP-92 NSCLC = system: HOP-92 NSCLC
T-47D breast = system: T-47D breast
HCT-116 colon = system: HCT-116 colon
K-562 leukemia = system: K-562 leukemia
NCI-H522 lung = system: NCI-H522 lung
MCF7 breast = system: MCF7 breast
TK-10 renal = system: TK-10 renal
U251 CNS = system: U251 CNS
A498 renal = system: A498 renal

Row | Compound | TGI (SF-539 CNS) | TGI (LOX IMVI melanoma) | TGI (ACHN renal) | TGI (786-0 renal) | TGI (KM12 colon) | TGI (HT29 colon) | TGI (BT-549 breast) | TGI (MDA-MB-231 breast) | TGI (DU-145 prostate) | TGI (HOP-92 NSCLC) | TGI (T-47D breast) | TGI (HCT-116 colon) | TGI (K-562 leukemia) | TGI (NCI-H522 lung) | TGI (MCF7 breast) | TGI (TK-10 renal) | TGI (U251 CNS) | TGI (A498 renal)
1 | Cc1ccc(-c2nc3ccc(Cl)cc3[nH]2)cc1 | > 100 µM | > 100 µM | > 100 µM | > 100 µM | > 100 µM | > 100 µM | > 100 µM | > 100 µM | > 100 µM | > 100 µM | > 100 µM | > 100 µM | > 100 µM | > 100 µM | > 100 µM | > 100 µM | > 100 µM | 
2 | CC1CC[C@@H](C(C)C)[C@H](Oc2nnc(C3OC(CO)C(O)C3O)o2)C1 (some centres not stated) | > 100 µM | > 100 µM | > 100 µM | > 100 µM | > 100 µM | > 100 µM | > 100 µM | > 100 µM | > 100 µM | > 100 µM | > 100 µM | > 100 µM | > 100 µM |  | > 100 µM | > 100 µM | > 100 µM | > 100 µM
3 | Fc1ccc2nc3n(c2c1)C(c1c(F)cccc1F)SC3 (configuration not stated) | > 100 µM | > 100 µM | > 100 µM | > 100 µM | > 100 µM | > 100 µM | > 100 µM | > 100 µM | > 100 µM | > 100 µM | > 100 µM | > 100 µM |  | > 100 µM | > 100 µM | > 100 µM | > 100 µM | > 100 µM
4 | CN(C)c1ccc(N=Nc2ccc3nc[nH]c3c2)cc1 | 36.9 µM |  | 37.6 µM | 36.1 µM | 63.9 µM | 37 µM | > 100 µM | 39.4 µM | 77.3 µM |  | > 100 µM | 38.8 µM | 75.2 µM | 51.1 µM |  | 52.8 µM | 76.4 µM | 41.5 µM
5 | COc1ccc(NS(=O)CCCc2ccccc2)cc1 (configuration not stated) | > 100 µM | > 100 µM | > 100 µM | > 100 µM | > 100 µM | > 100 µM | > 100 µM | > 100 µM | > 100 µM |  | 71.9 µM | > 100 µM | > 100 µM | > 100 µM | > 100 µM | > 100 µM | > 100 µM | 
6 | CSc1nc(N)c(NC2OC(CO)C(O)C2O)c(=O)[nH]1 (configuration not stated) | > 100 µM | > 100 µM |  | > 100 µM | > 100 µM | > 100 µM | > 100 µM | > 100 µM | > 100 µM |  | > 100 µM | > 100 µM | > 100 µM | > 100 µM | > 100 µM | > 100 µM | > 100 µM | > 100 µM
7 | CC(=O)Nc1ccccc1SCCSSCCSc1ccccc1NC(C)=O | 52.1 µM | 38.7 µM | 39.1 µM | 64.3 µM | > 100 µM | 76.8 µM | > 100 µM | 91.4 µM | 88.7 µM | 64.4 µM | 92.9 µM | > 100 µM | > 100 µM | 34.3 µM | > 100 µM | > 100 µM | 70.2 µM | 
8 | O=C(NNC1=NCCN1)c1ccco1 | > 100 µM | > 100 µM | > 100 µM | > 100 µM | > 100 µM | > 100 µM | > 100 µM | > 100 µM | > 100 µM | > 100 µM | > 100 µM | > 100 µM | > 100 µM | > 100 µM | > 100 µM | > 100 µM | > 100 µM | 
9 | CC1CCCc2c(C#N)c(N)nc(-c3ccc(Cl)cc3)c21 (configuration not stated) | 33 µM | 36.3 µM | 38.4 µM | 38.2 µM | > 100 µM | 44.4 µM | > 100 µM | 81.8 µM | > 100 µM |  | 74.5 µM | > 100 µM | > 100 µM |  | 84.5 µM | > 100 µM | > 100 µM | > 100 µM
10 | O=C1C2CC=CCC2C(=O)N1n1c(-c2ccccc2)n[nH]c1=O (configuration not stated) | > 100 µM | > 100 µM | > 100 µM | > 100 µM | > 100 µM | > 100 µM | > 100 µM | > 100 µM |  | > 100 µM | > 100 µM | > 100 µM | > 100 µM | > 100 µM | > 100 µM | > 100 µM | > 100 µM | > 100 µM
11 | Cc1ccc(N2C(=O)C3c4[nH]c5ccccc5c4C4CCC(C(C)(C)C)CC4C3C2=O)cc1 (configuration not stated) |  | 26.6 µM | 13.6 µM | 14.8 µM | 65 µM | 46.1 µM | 39.3 µM | 15.8 µM | 5.82 µM | 32.9 µM | 36 µM | 24.6 µM | 17.5 µM | 26.5 µM | > 46 µM | 15.7 µM | 16.1 µM | 31.3 µM
12 | C=CCOC(=O)/C(=C\c1ccc(OC)c(OC)c1)c1ccc(OC)c(OC)c1 | > 100 µM |  | > 100 µM | > 100 µM | > 100 µM | > 100 µM | > 100 µM | > 100 µM | > 100 µM | > 100 µM | 98.4 µM | > 100 µM | > 100 µM | > 100 µM | > 100 µM | > 100 µM | > 100 µM | > 100 µM
13 | CC(C)[C@@H]1NC(=O)[C@H]2N=C(O[C@@H]2C)[C@@H]2CCCN2C(=O)[C@H](Cc2ccccc2)NC(=O)[C@@H]2CSC(=N2)[C@@H](Cc2ccccc2)NC(=O)[C@@H]2CSC1=N2 | > 50 µM | > 50 µM | > 50 µM | > 50 µM | > 50 µM | > 50 µM | > 50 µM | > 50 µM | > 50 µM |  | > 50 µM | > 50 µM | > 50 µM | > 50 µM | > 50 µM | > 50 µM | > 50 µM | 
14 | CCOC(=O)CSc1nc(-c2ccccc2)c(C#N)c(=O)[nH]1 | > 100 µM |  | > 100 µM | > 100 µM | > 100 µM | > 100 µM | > 100 µM | > 100 µM | > 100 µM | > 100 µM | > 100 µM | > 100 µM | > 100 µM | 47 µM | > 100 µM | > 100 µM | > 100 µM | > 100 µM
